Data from patent publication US10428044B2, “3-amino-1,5,6,7-tetrahydro-4H-indol-4-ones” (Bayer Pharma Aktiengesellschaft, priority 2014, dated 2019).

Molecular target: (recombinant) catalytic domain of human Bub1 (amino acids 704-1085) (Homo sapiens (Human), UniProt O43683)
Test: Bub1 kinase assay (TR-FRET)
Assay type: biochemical
Conditions: ATP 10 μM final, peptide substrate 1 μM final, 60 min at 22° C., read-out: Biological Assay: Bub1 kinase assay median IC50
In short: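 Readout was TR-FRET between a Eu-labeled antibody complex recognizing phosphoserine and streptavidin-XL665 on the biotinylated peptide, after EDTA stop and 1 h at 22° C. The kinase reaction ran for 60 min at 22° C. Values are means or medians of repeat tests, from 4-parameter fits normalized to enzyme-free and inhibitor-free controls.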

(recombinant) catalytic domain of human Bub1 (amino acids 704-1085), sequence (O43683 704-1085): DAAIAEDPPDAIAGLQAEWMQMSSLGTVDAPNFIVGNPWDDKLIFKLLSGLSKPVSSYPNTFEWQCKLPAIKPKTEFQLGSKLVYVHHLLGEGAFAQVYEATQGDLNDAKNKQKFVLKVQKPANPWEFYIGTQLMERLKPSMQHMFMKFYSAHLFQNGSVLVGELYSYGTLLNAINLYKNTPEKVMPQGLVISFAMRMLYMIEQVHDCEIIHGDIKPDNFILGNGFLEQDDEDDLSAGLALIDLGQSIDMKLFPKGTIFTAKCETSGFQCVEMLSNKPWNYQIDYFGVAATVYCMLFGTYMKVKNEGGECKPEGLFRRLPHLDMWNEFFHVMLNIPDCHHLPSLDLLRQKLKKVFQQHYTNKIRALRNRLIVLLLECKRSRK

| SMILES | IC50 [nM] |
| --- | --- |
| O=C1CCCc2[nH]c(-c3ccnc(NC(=O)[C@H]4C[C@H]4F)c3)c(Nc3ccccc3)c21 [Example 253, (1R,2R)-2-fluoro-N-{4-[4-oxo-3-(phenylamino)-4,5,6,7-tetrahydro-1H-indol-2-yl]pyridin-2-yl}cyclopropanecarboxamide] | 23.3 |
| CC1(C)CC(=O)c2c([nH]c(-c3ccnc(NC(=O)[C@@H]4C[C@@H]4F)c3)c2Nc2ccccc2)C1 [Example 258] | 6.49 |
| CC1(C)CC(=O)c2c([nH]c(-c3ccnc(NC(=O)[C@H]4C[C@H]4F)c3)c2Nc2ccccc2)C1 [Example 259] | 10.1 |
| O=C1CCCc2[nH]c(-c3ccnc(NC(=O)C4(F)CC4)c3)c(Nc3ccccc3)c21 [Example 261, 1-fluoro-N-{4-[4-oxo-3-(phenylamino)-4,5,6,7-tetrahydro-1H-indol-2-yl]pyridin-2-yl}cyclopropanecarboxamide] | 41.7 |
| CC(C)(CF)C(=O)Nc1cc(-c2[nH]c3c(c2Nc2ccccc2)C(=O)CCC3)ccn1 [Example 263, 3-fluoro-2,2-dimethyl-N-{4-[4-oxo-3-(phenylamino)-4,5,6,7-tetrahydro-1H-indol-2-yl]pyridin-2-yl}propanamide] | 140 |
| O=C(Nc1cc(-c2[nH]c3c(c2Nc2ccccc2)C(=O)CCC3)ccn1)c1ccccc1F [Example 264, 2-fluoro-N-{4-[4-oxo-3-(phenylamino)-4,5,6,7-tetrahydro-1H-indol-2-yl]pyridin-2-yl}benzamide] | 13.9 |
| O=C(Nc1cc(-c2[nH]c3c(c2Nc2ccccc2)C(=O)CCC3)ccn1)c1cccc(F)c1 [Example 265, 3-fluoro-N-{4-[4-oxo-3-(phenylamino)-4,5,6,7-tetrahydro-1H-indol-2-yl]pyridin-2-yl}benzamide] | 19.1 |
| O=C(Nc1cc(-c2[nH]c3c(c2Nc2ccccc2)C(=O)CCC3)ccn1)c1ccc(F)cc1 [Example 266, 4-fluoro-N-{4-[4-oxo-3-(phenylamino)-4,5,6,7-tetrahydro-1H-indol-2-yl]pyridin-2-yl}benzamide] | 13.8 |
| CC1(C)CC(=O)c2c([nH]c(-c3ccnc(NC(=O)c4ccc(F)cc4)c3)c2Nc2ccccc2)C1 [Example 267, N-{4-[6,6-dimethyl-4-oxo-3-(phenylamino)-4,5,6,7-tetrahydro-1H-indol-2-yl]pyridin-2-yl}-4-fluorobenzamide] | 9.55 |
| CC1(C)CC(=O)c2c([nH]c(-c3ccnc(NC(=O)c4cscn4)c3)c2Nc2ccccc2)C1 [Example 272, N-{4-[6,6-dimethyl-4-oxo-3-(phenylamino)-4,5,6,7-tetrahydro-1H-indol-2-yl]pyridin-2-yl}-1,3-thiazole-4-carboxamide] | 6.63 |
| O=C(Nc1cc(-c2[nH]c3c(c2Nc2ccccc2)C(=O)CCC3)ccn1)c1nnn[nH]1 [Example 283, N-{4-[4-oxo-3-(phenylamino)-4,5,6,7-tetrahydro-1H-indol-2-yl]pyridin-2-yl}-1H-tetrazole-5-carboxamide] | 18.9 |
| O=C(Cc1ccc[nH]1)Nc1cc(-c2[nH]c3c(c2Nc2ccccc2)C(=O)CCC3)ccn1 [Example 284, N-{4-[4-oxo-3-(phenylamino)-4,5,6,7-tetrahydro-1H-indol-2-yl]pyridin-2-yl}-2-(1H-pyrrol-2-yl)acetamide] | 13.7 |
| O=C(Cc1nccs1)Nc1cc(-c2[nH]c3c(c2Nc2ccccc2)C(=O)CCC3)ccn1 [Example 285, N-{4-[4-oxo-3-(phenylamino)-4,5,6,7-tetrahydro-1H-indol-2-yl]pyridin-2-yl}-2-(1,3-thiazol-2-yl)acetamide] | 30.8 |
| O=C(Cc1cc[nH]c1)Nc1cc(-c2[nH]c3c(c2Nc2ccccc2)C(=O)CCC3)ccn1 [Example 286, N-{4-[4-oxo-3-(phenylamino)-4,5,6,7-tetrahydro-1H-indol-2-yl]pyridin-2-yl}-2-(1H-pyrrol-3-yl)acetamide] | 21.6 |
| O=C(Cc1cscn1)Nc1cc(-c2[nH]c3c(c2Nc2ccccc2)C(=O)CCC3)ccn1 [Example 287, N-{4-[4-oxo-3-(phenylamino)-4,5,6,7-tetrahydro-1H-indol-2-yl]pyridin-2-yl}-2-(1,3-thiazol-4-yl)acetamide] | 48.4 |
| O=C(Cc1ccco1)Nc1cc(-c2[nH]c3c(c2Nc2ccccc2)C(=O)CCC3)ccn1 [Example 288, 2-(furan-2-yl)-N-{4-[4-oxo-3-(phenylamino)-4,5,6,7-tetrahydro-1H-indol-2-yl]pyridin-2-yl}acetamide] | 16.7 |
| Cc1cc(CC(=O)Nc2cc(-c3[nH]c4c(c3Nc3ccccc3)C(=O)CCC4)ccn2)on1 [Example 289, 2-(3-methyl-1,2-oxazol-5-yl)-N-{4-[4-oxo-3-(phenylamino)-4,5,6,7-tetrahydro-1H-indol-2-yl]pyridin-2-yl}acetamide] | 15.9 |
| O=C(Cc1cccs1)Nc1cc(-c2[nH]c3c(c2Nc2ccccc2)C(=O)CCC3)ccn1 [Example 290, N-{4-[4-oxo-3-(phenylamino)-4,5,6,7-tetrahydro-1H-indol-2-yl]pyridin-2-yl}-2-(thiophen-2-yl)acetamide] | 13.9 |
| O=C(Cc1ccsc1)Nc1cc(-c2[nH]c3c(c2Nc2ccccc2)C(=O)CCC3)ccn1 [Example 291, N-{4-[4-oxo-3-(phenylamino)-4,5,6,7-tetrahydro-1H-indol-2-yl]pyridin-2-yl}-2-(thiophen-3-yl)acetamide] | 28.7 |
| Cn1nccc1CC(=O)Nc1cc(-c2[nH]c3c(c2Nc2ccccc2)C(=O)CCC3)ccn1 [Example 292, 2-(1-methyl-1H-pyrazol-5-yl)-N-{4-[4-oxo-3-(phenylamino)-4,5,6,7-tetrahydro-1H-indol-2-yl]pyridin-2-yl}acetamide] | 340 |
| CC(=O)Nc1cc(-c2[nH]c3c(c2Nc2ccccc2)C(=O)CC2(CC2)C3)ccn1 [Example 293, N-{4-[4′-oxo-3′-(phenylamino)-1′,4′,5′,7′-tetrahydrospiro[cyclopropane-1,6′-indol]-2′-yl]pyridin-2-yl}acetamide] | 11.2 |
| O=C1CC2(CC2)Cc2[nH]c(-c3ccnc(NC(=O)C4CC4)c3)c(Nc3ccccc3)c21 [Example 294, N-{4-[4′-oxo-3′-(phenylamino)-1′,4′,5′,7′-tetrahydrospiro[cyclopropane-1,6′-indol]-2′-yl]pyridin-2-yl}cyclopropanecarboxamide] | 9.17 |

Now from value to molecule:

| IC50 [nM] | SMILES |
| --- | --- |
| 22.7 | O=C(Nc1cc(-c2[nH]c3c(c2Nc2ccccc2)C(=O)CCC3)ccn1)c1ccncc1 [Example 268, N-{4-[4-oxo-3-(phenylamino)-4,5,6,7-tetrahydro-1H-indol-2-yl]pyridin-2-yl}pyridine-4-carboxamide] |
| 29.4 | O=C(Nc1cc(-c2[nH]c3c(c2Nc2ccccc2)C(=O)CCC3)ccn1)c1ccccn1 [Example 269, N-{4-[4-oxo-3-(phenylamino)-4,5,6,7-tetrahydro-1H-indol-2-yl]pyridin-2-yl}pyridine-2-carboxamide] |
| 29.4 | O=C(Nc1cc(-c2[nH]c3c(c2Nc2ccccc2)C(=O)CCC3)ccn1)c1nccs1 [Example 270, N-{4-[4-oxo-3-(phenylamino)-4,5,6,7-tetrahydro-1H-indol-2-yl]pyridin-2-yl}-1,3-thiazole-2-carboxamide] |
| 7.64 | O=C(Nc1cc(-c2[nH]c3c(c2Nc2ccccc2)C(=O)CCC3)ccn1)c1cscn1 [Example 271, N-{4-[4-oxo-3-(phenylamino)-4,5,6,7-tetrahydro-1H-indol-2-yl]pyridin-2-yl}-1,3-thiazole-4-carboxamide] |
| 7.66 | O=C(Nc1cc(-c2[nH]c3c(c2Nc2ccccc2)C(=O)CCC3)ccn1)c1cncs1 [Example 273, N-{4-[4-oxo-3-(phenylamino)-4,5,6,7-tetrahydro-1H-indol-2-yl]pyridin-2-yl}-1,3-thiazole-5-carboxamide] |
| 48.2 | O=C(Nc1cc(-c2[nH]c3c(c2Nc2ccccc2)C(=O)CCC3)ccn1)c1ncc[nH]1 [Example 274, N-{4-[4-oxo-3-(phenylamino)-4,5,6,7-tetrahydro-1H-indol-2-yl]pyridin-2-yl}-1H-imidazole-2-carboxamide] |
| 12.7 | O=C(Nc1cc(-c2[nH]c3c(c2Nc2ccccc2)C(=O)CCC3)ccn1)c1ccn[nH]1 [Example 275, N-{4-[4-oxo-3-(phenylamino)-4,5,6,7-tetrahydro-1H-indol-2-yl]pyridin-2-yl}-1H-pyrazole-5-carboxamide] |
| 18.4 | O=C(Nc1cc(-c2[nH]c3c(c2Nc2ccccc2)C(=O)CCC3)ccn1)c1ccsn1 [Example 276, N-{4-[4-oxo-3-(phenylamino)-4,5,6,7-tetrahydro-1H-indol-2-yl]pyridin-2-yl}-1,2-thiazole-3-carboxamide] |
| 12.7 | O=C(Nc1cc(-c2[nH]c3c(c2Nc2ccccc2)C(=O)CCC3)ccn1)c1cocn1 [Example 278, N-{4-[4-oxo-3-(phenylamino)-4,5,6,7-tetrahydro-1H-indol-2-yl]pyridin-2-yl}-1,3-oxazole-4-carboxamide] |
| 12.6 | O=C(Nc1cc(-c2[nH]c3c(c2Nc2ccccc2)C(=O)CCC3)ccn1)c1cccnc1 [Example 279, N-{4-[4-oxo-3-(phenylamino)-4,5,6,7-tetrahydro-1H-indol-2-yl]pyridin-2-yl}pyridine-3-carboxamide] |
| 10.3 | O=C(Nc1cc(-c2[nH]c3c(c2Nc2ccccc2)C(=O)CCC3)ccn1)c1ccns1 [Example 280, N-{4-[4-oxo-3-(phenylamino)-4,5,6,7-tetrahydro-1H-indol-2-yl]pyridin-2-yl}-1,2-thiazole-5-carboxamide] |
| 11.2 | O=C(Nc1cc(-c2[nH]c3c(c2Nc2ccccc2)C(=O)CCC3)ccn1)c1cnn[nH]1 [Example 281, N-{4-[4-oxo-3-(phenylamino)-4,5,6,7-tetrahydro-1H-indol-2-yl]pyridin-2-yl}-1H-1,2,3-triazole-5-carboxamide] |
| 9.72 | O=C(Nc1cc(-c2[nH]c3c(c2Nc2ccccc2)C(=O)CCC3)ccn1)c1cnco1 [Example 282, N-{4-[4-oxo-3-(phenylamino)-4,5,6,7-tetrahydro-1H-indol-2-yl]pyridin-2-yl}-1,3-oxazole-5-carboxamide] |
